From ChEMBL document CHEMBL4616596, “Structural insights into the active site of poly(ADP-ribose) glycohydrolase using docking modes of 6-hydroxy-3H-xanthen-3-one derivative inhibitors” (Bioorg Med Chem, 2020)
pIC50: −log10 of the molar value.

These molecules were tested against Poly(ADP-ribose) glycohydrolase (Homo sapiens, UniProt Q86W56) (assay: Inhibition of recombinant human PARG assessed as mono(ADP-R) release using PAR as substrate measured after 15 mins by HPLC analysis).
Chain of Poly(ADP-ribose) glycohydrolase (Q86W56 whole entry): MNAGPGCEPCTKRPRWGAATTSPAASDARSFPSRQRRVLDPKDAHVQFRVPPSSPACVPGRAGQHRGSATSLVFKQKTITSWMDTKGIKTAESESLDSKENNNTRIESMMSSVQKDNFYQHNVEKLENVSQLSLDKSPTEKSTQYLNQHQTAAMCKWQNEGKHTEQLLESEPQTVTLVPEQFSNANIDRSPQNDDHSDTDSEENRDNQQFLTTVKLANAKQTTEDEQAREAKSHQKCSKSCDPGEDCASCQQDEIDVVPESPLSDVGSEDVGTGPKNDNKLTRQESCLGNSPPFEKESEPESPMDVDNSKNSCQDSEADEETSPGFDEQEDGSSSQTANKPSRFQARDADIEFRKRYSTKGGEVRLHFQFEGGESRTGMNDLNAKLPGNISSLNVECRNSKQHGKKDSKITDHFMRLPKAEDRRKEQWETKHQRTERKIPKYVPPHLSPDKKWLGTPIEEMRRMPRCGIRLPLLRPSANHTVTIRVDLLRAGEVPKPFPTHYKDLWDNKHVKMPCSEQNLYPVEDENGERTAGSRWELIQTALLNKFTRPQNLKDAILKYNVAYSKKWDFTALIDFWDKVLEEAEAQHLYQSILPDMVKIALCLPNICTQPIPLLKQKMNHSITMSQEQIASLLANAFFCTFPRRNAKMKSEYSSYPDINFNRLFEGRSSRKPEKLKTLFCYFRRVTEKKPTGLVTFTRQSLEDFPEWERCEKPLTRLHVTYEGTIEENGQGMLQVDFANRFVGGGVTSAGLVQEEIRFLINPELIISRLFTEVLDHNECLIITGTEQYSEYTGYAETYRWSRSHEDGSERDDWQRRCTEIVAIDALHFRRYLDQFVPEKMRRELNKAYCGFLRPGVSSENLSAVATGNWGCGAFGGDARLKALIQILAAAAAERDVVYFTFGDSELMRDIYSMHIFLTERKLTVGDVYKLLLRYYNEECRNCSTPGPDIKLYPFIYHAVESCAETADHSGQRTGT

SMILES | pIC50
O=C(O)c1c(Cl)c(Cl)c(Cl)c(Cl)c1-c1c2cc(I)c(=O)c(I)c-2oc2c(I)c(O)c(I)cc12 [ROSE BENGAL FREE ACID] | 4.53
O=C(O)c1c(Cl)ccc(Cl)c1-c1c2cc(I)c(=O)c(I)c-2oc2c(I)c(O)c(I)cc12 | 4.21
O=C(O)c1ccccc1-c1c2cc(I)c(=O)c(I)c-2oc2c(I)c(O)c(I)cc12 | 3.92
O=C(O)c1ccccc1-c1c2cc(Br)c(=O)c(Br)c-2oc2c(Br)c(O)c(Br)cc12 | < 3.52
O=C(O)c1c(Cl)c(Cl)c(Cl)c(Cl)c1-c1c2cc(Br)c(=O)c(Br)c-2oc2c(Br)c(O)c(Br)cc12 | 3.98
